Tests used:
Format in all cases: biochemical, Brevibacterium sterolicum ATCC 21387
cholesterol oxidase I [1] = molecular target: T1, cholesterol oxidase I (Brevibacterium sterolicum, UniProt P22637); test: Influence of inhibitor on enzyme activity; settings: inhibitor at 1 mM, activity in the absence of the inhibitor = 100
T1 construct: host or cells: Brevibacterium sterolicum ATCC 21387 (origin of the enzyme; how it was prepared is not described)
Source text: (§1) (3) Working pH for activity: The working pH of cholesterol oxidase II is in a range of 5.0 to 7.5, whereas that of cholesterol oxidase I is in a range of 6.0 to 7.5. […]
(§2) (d) Based on the amount of hydrogen peroxide formed, the amount of oxygen consumed and identification of the reaction product as described in (a), (b) and (c), it is recognized that the enzyme of the present invention acts on specifically cholesterol, that cholesterol was oxidized into hydrogen peroxide and 4-cholesten-3-one; that is, this enzyme has a cholesterol oxidase activity. [drawing 2] wherein R represents [drawing 3] • II. Working pH range and stable pH range The working pH for the activity is in a range of 5.0 to 7.5. The working pH range was determined by assaying the activity at each pH (phosphate buffer, Tris-HCl buffer, sodium acetate buffer) after the reaction at 37°C for 5 minutes. […] The pH range is determined by treating the enzyme at 50°C for 60 minutes at each pH (phosphate buffer, Tris-HCl buffer, sodium acetate buffer) and then assaying the residual activity. Method for determination of titer The amount of enzyme which catalyzes the reaction of decomposing 1 µmole of cholesterol at 37°C for one minute in the presence of oxygen is defined as one unit. The titer is determined as follows. With shaking, the enzyme acts on cholesterol and 4-aminoantipyrine and phenol are reacted with the formed hydrogen peroxide in the presence of peroxidase to form quinoneimine pigment. Absorption of the thus formed quinoneimine pigment in the visible region is measured to determine the amount of hydrogen peroxide generated. Thus, the titer of the enzyme is determined. Hereafter specific activity is defined as activity per 1 mg of protein (unit/mg). Furthermore, an amount of enzyme protein is determined by absorbance at 280 nm (1 mg/mℓ when absorbance is 1). • (a) Principle The enzyme activity is determined by reacting hydrogen peroxide generated by the enzyme with 4-aminoantipyrine and phenol in the presence of peroxidase and quantitatively determining the formed quinoneimine pigment. The reaction is shown by the following equations (1) and (2). [drawing 4] wherein R represents [drawing 5] [drawing 6] • (b) Procedure In a test tube, there are charged 1.0 ml of 3 mM cholesterol solution (which is prepared by adding 6 mℓ of 50 mM cholesterol ethanol solution to 94 mℓ of 1.05% Triton X-100 solution with stirring, heating the mixture for 10 minutes on a water bath, cooling the mixture in water, adding distilled water to the mixture until the total volume is 100 mℓ; and is not allowed to be used 30 minutes or longer after preparation), 0.3 mℓ of 50 mM sodium bilate solution, 0.3 mℓ of 0.5 mM potassium-sodium phosphate buffer (pH 6.6), 0.5 mℓ of 42 mM phenol, 0.5 mℓ of 2.4 mM 4-aminoantipyrine and 0.2 mℓ of 115 units/mℓ horseradish-derived peroxidase. The mixture is agitated. After maintaining at 37°C for 3 mintues, 0.2 mℓ of an enzyme solution is added to the mixture. With shaking, the reaction is carried out at 37°C for 5 to 10 minutes. Then, absorbance is measured at 500 nm (OD 500 nm). • (c) Calculation of titer One unit of cholesterol oxidase II corresponds to an enzyme activity which decomposes 1 µmole of cholesterol at 37°C for 1 minute. On the other hand, it is reported that absorption coefficient of 1 mM quinoneimine is 5.33 [Clinical Chemistry, 20, 470 (1974)]. […]

cholesterol oxidase II [2] = test: Influence of inhibitor on enzyme activity; settings: for Relative Activity (%): cholesterol oxidase II, inhibitor at 1 mM, activity in the absence of the inhibitor = 100; for Inhibition: whether cholesterol oxidase II is inhibited, in words
Source text: as §1, §2

cholesterol oxidase I [3] = molecular target: T1, cholesterol oxidase I; test: Substrate specificity (relative activity on each substrate); settings: activity of cholesterol oxidase I on each substrate; cholesterol = 100
Description: (§3) The working pH range was determined by assaying the activity at each pH (phosphate buffer, Tris-HCl buffer, sodium acetate buffer) after the reaction at 37°C for 5 minutes. […] The pH range is determined by treating the enzyme at 50°C for 60 minutes at each pH (phosphate buffer, Tris-HCl buffer, sodium acetate buffer) and then assaying the residual activity. Method for determination of titer The amount of enzyme which catalyzes the reaction of decomposing 1 µmole of cholesterol at 37°C for one minute in the presence of oxygen is defined as one unit. The titer is determined as follows. With shaking, the enzyme acts on cholesterol and 4-aminoantipyrine and phenol are reacted with the formed hydrogen peroxide in the presence of peroxidase to form quinoneimine pigment. Absorption of the thus formed quinoneimine pigment in the visible region is measured to determine the amount of hydrogen peroxide generated. Thus, the titer of the enzyme is determined. Hereafter specific activity is defined as activity per 1 mg of protein (unit/mg). […] The mixture is agitated. After maintaining at 37°C for 3 mintues, 0.2 mℓ of an enzyme solution is added to the mixture. With shaking, the reaction is carried out at 37°C for 5 to 10 minutes. Then, absorbance is measured at 500 nm (OD 500 nm). • (c) Calculation of titer One unit of cholesterol oxidase II corresponds to an enzyme activity which decomposes 1 µmole of cholesterol at 37°C for 1 minute. […] Optimum temperature The optimum temperature at a pH of 6.6 for 3 minutes of the reaction time was examined. […] After heat treatment at pH of 7.0 for 60 minutes in 0.05 M phosphate buffer, the residual activity was determined. […] Reaction rates of the two enzymes were measured in various concentrations of cholesterol. […] Michealis' constant was determined from the Line weaver-Burk plot [refer to J. Am. […] Determination of the amino acid sequence and nucleotide sequence of cholesterol oxidase II Cholesterol oxidase II may be divided into 2 subunits, using reverse phase high performance liquid chromatography. Each subunit is digested with a protease, for example trypsin, and the digested subunit is further fractionated using high performance liquid chromatography, to obtain protease-digested fragments. The amino acid sequence of each digested fragment may be analyzed according to the conventional method, with the amino acid sequencer.

cholesterol oxidase II [4] = test: as above; settings: for Relative Activity (%): activity of cholesterol oxidase II on each substrate, cholesterol = 100; for Substrate specificity: whether cholesterol oxidase II acts on the substrate, in words
Description: as §3

T1 sequence (P22637 46-552): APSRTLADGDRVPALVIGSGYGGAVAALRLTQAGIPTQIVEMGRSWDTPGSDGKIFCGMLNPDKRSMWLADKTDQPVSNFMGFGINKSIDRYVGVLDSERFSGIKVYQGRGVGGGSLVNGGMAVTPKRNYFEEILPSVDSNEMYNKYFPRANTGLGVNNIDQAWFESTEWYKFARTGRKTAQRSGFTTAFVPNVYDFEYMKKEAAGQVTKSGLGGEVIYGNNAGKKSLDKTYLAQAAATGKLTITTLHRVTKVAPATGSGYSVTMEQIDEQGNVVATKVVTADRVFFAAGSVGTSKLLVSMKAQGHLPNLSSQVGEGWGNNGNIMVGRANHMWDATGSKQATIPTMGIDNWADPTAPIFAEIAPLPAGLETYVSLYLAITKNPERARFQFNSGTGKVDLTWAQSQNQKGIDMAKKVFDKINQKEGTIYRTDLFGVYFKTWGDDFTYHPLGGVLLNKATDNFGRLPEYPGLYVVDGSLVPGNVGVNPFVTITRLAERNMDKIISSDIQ

| SMILES | Relative Activity (%) (cholesterol oxidase I [1]) | Relative Activity (%) (cholesterol oxidase II [2]) | Inhibition (cholesterol oxidase II [2]) | Relative Activity (%) (cholesterol oxidase I [3]) | Relative Activity (%) (cholesterol oxidase II [4]) | Substrate specificity (cholesterol oxidase II [4]) |
| --- | --- | --- | --- | --- | --- | --- |
| O=[N+]([O-])[O-].[Ag+] [AgNO3, silver nitrate] | 0% | 1.0% | inhibited | – | – | – |
| C[C@]12CC[C@@H](O)C[C@@H]1CC[C@@H]1[C@@H]2CC[C@]2(C)C(=O)CC[C@@H]12 [Androsterone] | – | – | – | 0% | 0% | does not act on |
| CCCCC/C=C\C/C=C\CCCCCCCC(=O)O[C@H]1CC[C@@]2(C)C(=CC[C@H]3[C@@H]4CC[C@H]([C@H](C)CCCC(C)C)[C@@]4(C)CC[C@@H]32)C1 [Cholesterol linoleate] | – | – | – | 0% | 0% | does not act on |
| CC(C)CCC[C@@H](C)[C@H]1CC[C@H]2[C@@H]3CC=C4C[C@@H](O)CC[C@]4(C)[C@H]3CC[C@]12C [Cholesterol, 5-cholesten-3-β-ol] | – | – | – | 100% | 100% | acts on |
| C[C@]12CC[C@H](O)CC1=CC[C@@H]1[C@@H]2CC[C@]2(C)C(=O)CC[C@@H]12 [Dehydroisoandrosterone] | – | – | – | 41.4% | 13.0% | acts on |
| C[C@]12CC[C@@H]3c4ccc(O)cc4CC[C@H]3[C@@H]1CC[C@@H]2O [Estradiol] | – | – | – | 0% | – | – |
| CC(C)=CCC[C@@H](C)[C@H]1CC[C@@]2(C)C3=C(CC[C@]12C)[C@@]1(C)CC[C@H](O)C(C)(C)[C@@H]1CC3 [Lanosterol] | – | – | – | 0% | 0% | does not act on |
| CC(=O)[C@H]1CC[C@H]2[C@@H]3CC=C4C[C@@H](O)CC[C@]4(C)[C@H]3CC[C@]12C [Pregnenolone] | – | – | – | 22.4% | 32.9% | acts on |
| CC[C@H](/C=C/[C@@H](C)[C@H]1CC[C@H]2[C@@H]3CC=C4C[C@@H](O)CC[C@]4(C)[C@H]3CC[C@]12C)C(C)C [Stigmasterol] | – | – | – | 10.0% | 64.4% | acts on |
| C=C1CC[C@H](O)C/C1=C/C=C1\CCC[C@]2(C)[C@@H]([C@H](C)CCCC(C)C)CC[C@@H]12 [Vitamin D3] | – | – | – | 0% | 0% | does not act on |
| Oc1cccc2cccnc12 [o-Hydroxyquinoline] | – | 91.3% | inhibited | – | – | – |
| O=S(=O)(O)c1cc[c]([Hg][Cl])cc1 [p-Chloromercury benzenesulfonate] | – | 87.0% | inhibited | – | – | – |
| CC[C@H](CC[C@@H](C)[C@H]1CC[C@H]2[C@@H]3CC=C4C[C@@H](O)CC[C@]4(C)[C@H]3CC[C@]12C)C(C)C [β-Sitosterol] | – | – | – | 19.7% | 82.0% | acts on |

— EP0560983B1, “New DNA sequence” (priority 1991, dated 1993)
